Consider 14 molecules from patent US20060063828A1 (priority 2004, published 2006).

In general, IC50 refers to the concentration needed to halve the response being measured. Higher therefore signals a need for much substance. One may read the melting point as the temperature of the solid-liquid transition.

One data set relates to VCAM-1. As to the kind of experiment: In Vitro VCAM-1 Assay (ELISA of VCAM-1 on TNF-α stimulated endothelial cells). It counts as cell-based. To be noted: Endothelial cell; primary human aortic (HAEC) or pulmonary (HPAEC) endothelial cells, TNF-α (1 ng/ml), approximately 16 hours. As for the experimental part:
Cell Culture and compound dosing: Cultured primary human aortic (HAEC) or pulmonary (HPAEC) endothelial cells were obtained from Clonetics, Inc., and were used below passage 9. Cells were seeded in 96 well plates such that they would reach 90-95% confluency by the following day. On the following day the cells were stimulated with TNF-α (1 ng/ml) in the presence or absence of compounds dissolved in DMSO such that the final concentration of DMSO is 0.25% or less. To establish a dose curve for each compound, four concentrations in 2- to 5-fold increments were used. Cells were exposed to TNF-α and compounds for approximately 16 hours. The next day the cells were examined under microscope to score for visual signs of toxicity or cell stress.
Following 16 hr exposure to TNF-α and compound the media was discarded and the cells were washed once with Hanks Balanced Salt Solution (HBSS)/Phosphate buffered saline (PBS) (1:1). Primary antibodies against VCAM-1 (0.25 μg/ml in HBSS/PBS+5% FBS) were added and incubated for 30-60 minutes at 37° C. Cells were washed with HBSS/PBS three times, and secondary antibody Horse Radish Peroxidase (HRP)-conjugated goat anti-mouse IgG (1:500 in HBSS/PBS+5% FBS) were added and incubated for 30 minutes at 37° C. Cells were washed with HBSS/PBS four time and TMB substrate were added and incubated at room temperature in the dark until there was adequate development of blue color. The length of time of incubation was typically 5-15 minutes. 2N sulfuric acid was added to stop the color development and the data was collected by reading the absorbance on a BioRad ELISA plate reader at OD 450 nm. The results are expressed as IC50 values (the concentration (micromolar) of compound required to inhibit 50% of the maximal response of the control sample stimulated by TNF-α only).
A general note: ELISA stands for enzyme-linked immunosorbent assay.

The molecule `C=C(C(=O)c1c(OC)ccc(-c2cccs2)c1OC)c1ccc(C(F)(F)F)cc1` [Example 40, 1-(2,6-Dimethoxy-3-thien-2-yl-phenyl)-2-(4-trifluoromethyl-phenyl)-propenone] returned a melting point of 102 to 105 °C. The IC50 in the data set on VCAM-1 was < 1000 nM.
In the same order, the values of `C=C(C(=O)c1cc(-c2cc3ccccc3s2)c(OC)cc1OC)c1ccc(C(=O)OC)cc1` [Example 12, 4-[1-(5-Benzo[b]thien-2-yl-2,4-dimethoxy-benzoyl)-vinyl]-benzoic acid methyl ester] are 184 to 186 °C and < 3000 nM.
As for `C=C(C(=O)c1ccc(C(=O)O)cc1)c1cc(-c2cnc3ccccc3c2)ccc1OC` [Example 2, 4-[2-(2-Methoxy-5-quinolin-3-yl-phenyl)-acryloyl]-benzoic acid], the melting point was 232 °C (dec.). Moreover, the IC50 with VCAM-1 was < 1000 nM.
In the same order, the values of `C=C(C(=O)c1cc(-c2cccs2)ccc1OC)c1ccc(C#N)cc1` [Example 53, 4-[1-(2-Methoxy-5-thien-2-yl-benzoyl)-vinyl]-benzonitrile] are 86 to 88 °C and < 3000 nM.
In the same order, the values of `C=C(C(=O)c1c(OC)ccc(-c2cccs2)c1OC)c1cccc(OC(C)(C)C(=O)O)c1` [Example 44, 2-{3-[1-(2,6-Dimethoxy-3-thien-2-yl-benzoyl)-vinyl]-phenoxy}-2-methyl-propionic acid] are 79 to 94 °C and < 3000 nM.
For `C=C(C(=O)c1ccc(C(=O)O)cc1)c1cc(-c2cccs2)c(OC)cc1OC` [Example 55, 4-[2-(2,4-Dimethoxy-5-thien-2-yl-phenyl)-acryloyl]-benzoic acid], in that order: 196 to 198 °C and < 3000 nM.
`C=C(C(=O)c1ccc(C(C)(C)C)cc1)c1cc(-c2cccs2)ccc1OC` [Example 57, 1-(4-tert-Butyl-phenyl)-2-(2-methoxy-5-thien-2-yl-phenyl)-propenone] returned a melting point of 130 to 132 °C. In addition, in the data set with VCAM-1, the IC50 is < 3000 nM.
`C=C(C(=O)c1c(OC)ccc(-c2cccs2)c1OC)c1c(F)cccc1C(F)(F)F` [Example 64, 1-(2,6-Dimethoxy-3-thien-2-yl-phenyl)-2-(2-fluoro-6-trifluoromethyl-phenyl)-propenone] showed a melting point of 76 to 78 °C. Moreover, in the data set with VCAM-1, the IC50 is > 10000 nM.
For `C=C(C(=O)c1ccc([N+](=O)[O-])cc1)c1cc(-c2cccs2)ccc1OC` [Example 18, 2-(2-Methoxy-5-thien-2-yl-phenyl)-1-(4-nitro-phenyl)-propenone], in that order: 160 to 162 °C and < 3000 nM.
Consider `C=C(C(=O)c1ccc(C(=O)O)cc1)c1c(OC)cc(-c2cccs2)cc1OC` [Example 6], for which the melting point was > 250 °C. Further, the IC50 with VCAM-1 is < 1000 nM.
In the same order, the values of `C=C(C(=O)c1ccc(C(=O)O)cc1)c1cc(-c2cccnc2)ccc1OC` [Example 4, 4-[2-(2-Methoxy-5-pyridin-3-yl-phenyl)-acryloyl]-benzoic acid] are 215 °C (dec.) and < 1000 nM.
On to `C=C(C(=O)c1ccc(NC(=O)c2ccno2)cc1)c1cc(-c2cccs2)ccc1OC` [Example 27, Isoxazole-5-carboxylic acid {4-[2-(2-methoxy-5-thien-2-yl-phenyl)-acryloyl]-phenyl}-amide], for which the melting point was 132.5 to 133.5 °C. Besides, the IC50 in the data set with VCAM-1 is < 1000 nM.
In the same order, the values of `C=C(C(=O)c1ccc(C(=O)NCCN2CCOCC2)cc1)c1cc(OC)c(OC)c(-c2cccs2)c1` [Example 50, 4-[2-(3,4-Dimethoxy-5-thien-2-yl-phenyl)-acryloyl]-N-(2-morpholin-4-yl-ethyl)-benzamide] are 84 to 87 °C and < 3000 nM.
Molecule `C=C(C(=O)c1cccc(C(=O)O)c1)c1cc(-c2cccs2)ccc1OC` [Example 56, 3-[2-(2-Methoxy-5-thien-2-yl-phenyl)-acryloyl]-benzoic acid] returned a melting point of 186 to 188 °C. For the same molecule, the IC50 in the data set with VCAM-1 was < 3000 nM.
